Key:
Botrytis cinerea = test: Activity against gray mold on bell pepper leaves caused by Botrytis cinerea, protective application (Use Example 6); format: in vivo; settings: 63 ppm active compound, 5 days, untreated plants 90% affected
Method: The mixture was then made up to 100 ml with water.
The next day, the treated plants were inoculated with an aqueous spore suspension of Botrytis cinerea in a 2% strength aqueous biomold solution having a density of 1.7×10^6 spores/ml. The plants were then placed in a dark acclimatized chamber at temperatures between 22 and 24° C. and high atmospheric humidity. After 5 days, the extent of the fungal infection could be determined visually by the infection of the leaf area.

Plasmopara viticola [1] = test: Activity against Peronospora of grapevines caused by Plasmopara viticola, 7 day protective application (Use Example 5); format: in vivo, Plasmopara viticola on potted grapevines; settings: 250 ppm active compound, untreated plants 50% infected
Method: (§1) For the use examples 4 to 7, the active compounds were prepared as a stock solution comprising 25 mg of active compound which was made up with a mixture of acetone and/or DMSO and the emulsifier Uniperol® EL in a volume ratio of solvent/emulsifier of 99:1 to 10 ml. The mixture was then made up to 100 ml with water. This stock solution was diluted to the active compound concentration stated below using the solvent/emulsifier/water mixture described.
Leaves of potted grapevines were sprayed to runoff point with an aqueous suspension having the concentration of active compound stated below. To be able to assess the persistency of the substances, the plants were, after the spray coating had dried on, placed in a greenhouse for 7 days. The undersides of the leaves were then inoculated with an aqueous sporangia suspension of Plasmopara viticola. The grapevines were then placed initially for 48 hours in a water vapor-saturated chamber at 24° C. and then for 5 days in the greenhouse at temperatures between 20 and 30° C. After this time, the plants were again placed in a humid chamber for 16 hours, to accelerate sporangiophore eruption. The extent of the development of the infection on the undersides of the leaves was then determined visually.

[2] = test system: Erysiphe [syn. Blumeria] graminis forma specialis. tritici; test: Activity against mildew of wheat caused by Erysiphe [syn. Blumeria] graminis forma specialis. tritici (Use Example 7); format: in vivo; settings: 250 ppm active compound, protective 24 h, 7 days; untreated plants 70% infected
Method: as §1
Leaves of potted wheat seedlings of the cultivar “Kanzler” were sprayed to runoff point with an aqueous suspension having the concentration of active compound stated below. 24 h after the spray coating had dried on, the leaves were dusted with spores of mildew of wheat (Erysiphe [syn. Blumeria] graminis forma specialis. tritici). The plants were then placed in a greenhouse at temperatures between 20 and 24° C. and 60 to 90% relative atmospheric humidity. After 7 days, the extent of the fungal infection was determined visually by the infection of the leaf area.

Plasmopara viticola [3] = test: Activity against Peronospora of grapevines caused by Plasmopara viticola (Use Example 1, inoculation the next day); format: in vivo, Plasmopara viticola on potted grapevines; settings: 250 ppm active compound, spray to runoff, inoculated next day; untreated plants 80% infected
Method: For the use examples 1 to 3, the active compounds were prepared as a stock solution comprising 0.25% by weight of active compound in acetone or dimethyl sulfoxide (DMSO). 1% by weight of the emulsifier Uniperol® EL (wetting agent having emulsifying and dispersant action based on ethoxylated alkylphenols) was added to this solution, and the mixture was diluted with water to the desired concentration.
Leaves of potted grapevines were sprayed to runoff point with an aqueous suspension having the concentration of active compounds stated below. The next day, the undersides of the leaves were inoculated with an aqueous sporangia suspension of Plasmopara viticola. The grapevines were then initially placed in a water vapor-saturated chamber at 24° C. for 48 hours and then in a greenhouse at temperatures between 20 and 30° C. for 5 days. After this time, the plants were again placed in a humid chamber for 16 hours to promote sporangiophore eruption. The extent of the development of the infection on the undersides of the leaves was then determined visually.

Cn1cc(C(=O)Nc2ccnn2-c2ccc(-c3ccccc3)cc2)c(C(F)(F)F)n1 [example 43]
infection (leaf area) (Botrytis cinerea): at most 10%

Cc1nn(C)cc1C(=O)Nc1cc(C(F)(F)F)nn1-c1ccccc1 [example 10]
infection (Plasmopara viticola [1]): at most 20%

Cc1ccc(-n2nccc2NC(=O)c2cccnc2Cl)cc1 [example 31]
infection (leaf area) [2]: at most 15%

Cc1ccsc1C(=O)Nc1cc(C(F)(F)F)nn1-c1ccc(Br)cc1 [example 18]
infection (Plasmopara viticola [3]): at most 20%
